Data reported in patent publication US9617343B2, “Methods and compositions for treating lupus” (GENZYME CORPORATION, priority 2009, dated 2017).

Legend:
Format in all cases: in vivo, mouse
NZB/NZWF1 mice [1] = conditions: antibodies two doses ~3 mg/kg i.p., cyclophosphamide 50 mg/kg weekly injections, to 43 weeks of age
NZB/NZWF1 mice [2] = test: Kidney section staining for CD4+, CD8+ and FoxP3+ cells; conditions: kidney sections of NZB/NZWF1 mice scored blindly on a scale of 0-4
NZB/NZWF1 mice [3] = test: Levels of proteinuria (colorimetric total urine protein assay); conditions: by the end of the study (43 weeks), antibodies two i.p. injections ~3 mg/kg, cyclophosphamide 50 mg/kg weekly
NZB/NZWF1 mice [4] = test: Histological examination of kidneys; conditions: trend, not statistically significant
NZB/NZWF1 mice [5] = test: Titers of serum IgG antibodies to dsDNA by ELISA; conditions: antibody two i.p. injections ~3 mg/kg, cyclophosphamide 50 mg/kg weekly

O=P1(N(CCCl)CCCl)NCCCO1 (centres unmarked) [cyclophosphamide, Cyclophosphamide]
survival (NZB/NZWF1 mice [1]): 80% | CD4+ cells infiltrating the kidneys (NZB/NZWF1 mice [2]): significant decrease | CD8+ cells infiltrating the kidneys (NZB/NZWF1 mice [2]): significant decrease | FoxP3+ cells infiltrating the kidneys (NZB/NZWF1 mice [2]): significant decrease | mice that reached severe proteinuria (>500 mg/dL/day) (NZB/NZWF1 mice [3]): 20% | median glomerulopathy scores (NZB/NZWF1 mice [4]; compared to rat IgG and vehicle control groups): reduced | interstitial inflammation (NZB/NZWF1 mice [4]): Reduced | effect on development of autoantibodies against dsDNA (serum IgG titers) (NZB/NZWF1 mice [5]): effectively reduced
